Assay results reported in patent US5976781A, “Determining plasmodium in blood by sphingomyelin synthase activity” (The Board of Trustees of the Leland Stanford Junior …, priority 1995, dated 1999).
Values belong to the compound of their own block, whether it stands above or below them.

Experiments:
P. falciparum strain FCB = experiment: Inhibition of intraerythrocytic growth in culture (Giemsa staining after 24 h); assay type: cell-based, Plasmodium falciparum; conditions: 5 μM compound added to 0-12 h rings
From the text: (§1) P. falciparum strain FCB was used for all experiments and cultured in vitro in according to a modification of the method of Trager and Jensen left off. Trager, W. and Jensen, J. B. (1976) Human malaria in continuous culture., Science (Wash. D.C.) 193: 673-675 Haldar, K., Ferguson, M. A. J. and Cross, G. A. M. (1985) Acylation of a Plasmodium falciparum merozoite surface antigen via sn-1, 2-diacyl glycerol. J. Biol. Chem. 260; 4969-4974 The culture medium contained RPMI 1640 supplemented with 25 Mm hepes, Ph 7.4/[…]/92 μM hypoxanthine/0.18% sodium bicarbonate/25 μM gentamicin and 10% AB^+ human sera. The parasites were grown in A^+ erythrocytes at 2.5-5% hematocrit. Parasite cultures were synchronized by separation of the early and late stages on a Percoll gradient. The subsequent reincubation of these stages in culture were used to obtain cells 12-24h in the life cycle. Inhibition of sphingomyelin biosynthetic activity using 5 μM of the various compounds was carried out as described in Example 1. 5 μM of the various compounds were added to 0-12 h rings in the culture medium and cells were examined by Giemsa staining after 24 h.

[1] = test system: P. falciparum sphingomyelin synthase; experiment: Inhibition of plasmodial sphingomyelin biosynthesis in intact infected erythrocytes (C6-NBD-ceramide to C6-NBD-sphingomyelin); assay type: cell-based, Plasmodium falciparum; conditions: for effect on sphingomyelin synthase enzyme activity: 5 μM compound (Example 3); for [%] inhibition of sphingomyelin biosynthetic activity: 5 μM compound
Description: 1×10^8 infected cells 24 h after invasion were washed serum-free in RPMI 1640 and preincubated for thirty min at 37° C. in 1 ml of RPMI 1640 containing 0-5 μM or 0-500 μM of PPMP. (C6-NBD-ceramide (N-[7-(4-nitrobenzo-2-oxa-1,3-diazide)]-6-aminocaproyl-D-erythro-sphingosine) was added to each sample at a final concentration of 5 μM, the samples further incubated for 30 min at 37° C. and cellular lipids extracted. C6-NBD-sphingomyelin was resolved by TLC and quantitated by fluorescence spectrophotometry as described previously. Bligh, E. G. and Dyer, W. Y. (1959) A rapid method for total lipid extraction and purification., Can. J. Biochem. Physiol. 37: 911-917. Haldar, K., Uyetake, L., Ahori, N., Elmendorf, H. G. and Lu, W-1. (1991) The accumulation and metabolism of a fluorescent ceramide derivative in Plasmodium falciparum-infected erythrocytes., Mo. Biochem. Parasitol. 49: 143-156. Elmendorf, H. G. and Haldar, K. (1994) Plasmodium falciparum exports the Golgi marker sphingomyelin synthase into a tubovesicular network in the cytoplasm of mature erythrocytes., J. Cell Biol. 124: 449-462. Each value obtained represented the mean of triplicate determinations from five experiments. The arrow bars indicate the standard deviations. The results are depicted in FIG. 1.
as §1

protein synthesis = experiment: Effect on protein synthesis; assay type: cell-based
P. falciparum schizonts = experiment: Schizont maturation, merozoite invasion and ring viability in the presence of drug; assay type: cell-based, Plasmodium falciparum; conditions: for fate of schizonts greater than 40 h in the cycle: in the presence of 5 μM drug
DNA synthesis = experiment: Effect on DNA synthesis; assay type: cell-based
P. falciparum = experiment: Intraerythrocytic development in long term culture, parasitemia over consecutive cycles; assay type: cell-based, Plasmodium falciparum
Description: Synchronized cultures 12 h after invasion were subjected to different concentrations of PPMP. Parasitemias of drug-treated cultures were determined at various time points during two intraerythrocytic cycles and compared to cells grown in the absence of drug.
The effect of the single lipid analogs to inhibit parasite development in long term culture in consecutive cycles of the parasite growth were investigated. The studies were initiated with synchronized, young rings (0-12 h) at 10% parasitemia. In order to ensure healthy growth of the malaria parasite in vitro, the parasitemias of the cultures are not allowed to exceed 10%. Yet under normal conditions a 3-6 fold increase in parasitemias is detected with each round of invasion: thus for each new cycle, the cultures were diluted 4-fold into fresh erythrocytes in the absence or presence of the drug. […] The lowest effective, killing concentration of PDMP over three cycles of growth is 1.0 μM.

[2] = test system: P. falciparum sphingomyelin synthase; experiment: Inhibition of sphingomyelin biosynthesis in hypotonically lysed infected erythrocytes and fractions; assay type: biochemical, Plasmodium falciparum
Description: Cells were washed serum-free in PBS and intact cells were incubated in PBS. Cells were lysed in 10 volumes of hypotonic buffer. Pellets and supernatants were separated by centrifugation at 10^4 ×G for 10 min at 4° C. Inhibition of sphingomyelin biosynthetic activity was carried out as described in Example 1. Glutamate dehydrogenase, a parasite cytosolic activity, was assayed using 10 μM alpha-ketoglutarate and 0.1 μM NADPH for 1 h at 37° C. by measuring the absorption at 340 nm in a spectrophotometer. The following table indicates the results

[3] = test system: tubovesicular membrane reticulum (TVM) of P. falciparum-infected erythrocytes; experiment: Tubovesicular membrane (TVM) morphology by confocal microscopy with C5-DMB-ceramide; assay type: cell-based, Plasmodium falciparum; conditions: 5 μM PPMP; C5 DMB-ceramide staining; 240 optical sections, 20 cells
Description: Schizont-stage parasites isolated over Percoll were allowed to invade in the presence of RPMI 1640 containing 10% human serum or in the presence of RPMI 1640 containing 10% human serum and 5 μM PPMP. 1×10^8 infected erythrocytes of the appropriate stage were incubated in 1 ml of RPMI 1640 supplemented with 2 mg/ml defatted BSA and 20 μM C5 -DMB-ceramide. Cells were washed and fixed as described in Example 5. Sequential micrographs were taken on a custom made laser confocal microscope at 400 nm intervals along the Z axis. Raw data were processed as described previously.

- effect on sphingomyelin synthase enzyme activity [1]: no effect
SMILES: CCCCCCCCCCCCCCC[C@H](O)[C@@H](N)CO (racemic) [dl-dihydrosphingosine]
- [%] inhibition of growth (P. falciparum strain FCB): 8%
- [%] inhibition of sphingomyelin biosynthetic activity ([1]; infected erythrocytes): 4%

SMILES: CCCCCCCCCC(=O)N[C@H](CN1CCOCC1)[C@H](O)c1ccccc1 (relative stereo) [PDMP, dl-threo-1-phenyl-2-decanoylamino-3-morpholino-1-propanol]
- inhibition of protein synthesis (protein synthesis): not inhibitory
- fate of schizonts greater than 40 h in the cycle (P. falciparum schizonts): mature and rupture
- [%] inhibition of sphingomyelin biosynthetic activity ([1]; infected erythrocytes): 31%
- inhibition of DNA synthesis (DNA synthesis): not inhibitory

SMILES: CCCCCCCCCCCCCCCC(=O)N[C@H](CN1CCOCC1)[C@H](O)c1ccccc1 (relative stereo) [PPMP, dl-threo-1-phenyl-2-palmitoylamino-3-morpholino-1-propanol]
- effect on development of trophozoite stage parasites (P. falciparum): blocks
- relative efficacy in long term growth inhibition (P. falciparum): more effective than PDMP
- effect on rings in their first cycle growth (P. falciparum; 5 μM drug): completely inhibits
- development through the first cycle (P. falciparum; concentrations as low as 0.05 μM): do not stop development through the first cycle
- inhibition of sphingomyelin biosynthesis at 5 μM PPMP [%] ([2]; hypotonic lysates): 33%
- inhibition of sphingomyelin biosynthesis at 5 μM PPMP [%] ([2]; pellet of lysate (10^4 xG)): 30%
- inhibition of sphingomyelin biosynthesis at 5 μM PPMP [%] ([2]; supernatant of lysate (10^4 xG)): 3%
- effect on schizont maturation or merozoite invasion into erythrocytes (P. falciparum schizonts; 5 μM PPMP): not to block
- fate of schizonts greater than 40 h in the cycle (P. falciparum schizonts): mature and rupture
- development of rings after being washed free of the drug (P. falciparum schizonts; rings formed in 5 μM PPMP): developed normally
- TVM morphology of rings formed in the presence of drug [3]: markedly devoid of tubular connections
- [%] inhibition of sphingomyelin biosynthetic activity ([1]; infected erythrocytes): 36%
- total cellular sphingomyelin synthase activity inhibited ([1]; 500 μM PPMP, infected erythrocytes): 80-90%
- change of sphingomyelin synthase activity ([1]; 0.05-0.5 μM PPMP, infected erythrocytes): initial, rapid decrease
- average inhibition of sphingomyelin synthase activity ([1]; 1-5 μM PPMP, infected erythrocytes): 35%
- concentration at which the sensitive pool of sphingomyelin synthase activity is completely inhibited ([1]; infected erythrocytes): 1 to 5 µM
- inhibition of sphingomyelin biosynthesis at 5 μM PPMP [%] ([1]; intact cells, 5 μM PPMP): 35%

SMILES: CCCCCCCCCC(=O)N[C@@H](CN1CCOCC1)[C@H](O)c1ccccc1 (relative stereo) [dl-erythro-PDMP]
- effect on sphingomyelin synthase enzyme activity [1]: no effect
- [%] inhibition of sphingomyelin biosynthetic activity ([1]; infected erythrocytes): 3%

SMILES: CCN(CC)CCO[C@H]1CC[C@@]2(C)C(=CC[C@@H]3[C@@H]2CC[C@]2(C)C(=O)CC[C@@H]32)C1 [U 18666 A]
- effect on sphingomyelin synthase enzyme activity [1]: no effect
- [%] inhibition of sphingomyelin biosynthetic activity ([1]; infected erythrocytes): 0%

SMILES: CN(C)CCCN1c2ccccc2CCc2ccccc21 [imipramine]
- effect on sphingomyelin synthase enzyme activity [1]: no effect
- [%] inhibition of sphingomyelin biosynthetic activity ([1]; infected erythrocytes): 0%

SMILES: CCCCCCCCCCCCC/C=C/[C@@H](O)[C@@H](N)CO [sphingosine]
- effect on sphingomyelin synthase enzyme activity [1]: no effect
- [%] inhibition of sphingomyelin biosynthetic activity ([1]; infected erythrocytes): 0%

SMILES: CCCCCCCCCCCCCCCCCCN [stearylamine]
- effect on sphingomyelin synthase enzyme activity [1]: no effect
- [%] inhibition of sphingomyelin biosynthetic activity ([1]; infected erythrocytes): 0%
